The text below walks through data of ChEMBL document CHEMBL1131612, “6-Amino-2-(4-fluorophenyl)-4-methoxy-3- (4-pyridyl)-1H-pyrrolo[2, 3-b]pyridine (RWJ 68354): a potent and selective p38 kinase inhibitor” (J Med Chem, 1998).

For experiment [1], the target named is Mitogen-activated protein kinase 1 (Homo sapiens) (UniProt P28482). As to the kind of experiment: Inhibition of Mitogen-activated protein kinase 1 (ERK-2 enzyme) at 10 uM.
In experiment [2] the target is cAMP-dependent protein kinase (PKA) (Homo sapiens) (UniProt P22694+P17612+P22612). As to the kind of experiment: Inhibition of Protein kinase A at 5 uM. Type of experiment: protein assay.
Experiment [3] can be described thus: Percent inhibition of LPS-stimulated TNF-alpha release in fasted BALB/cJ mice at 10 mg/kg. It is filed as functional. The note with it: Mus musculus.
Experiment [4] in a line: Percent inhibition of LPS-stimulated TNF-alpha release in fasted BALB/cJ mice at 25 mg/kg. The note with it: Mus musculus. Type of experiment: functional.
For experiment [5], the target named is Proto-oncogene tyrosine-protein kinase Src (Homo sapiens) (UniProt P12931). As to the kind of experiment: Inhibition of c-Src tyrosine kinase at 5 uM.
Sequence of Proto-oncogene tyrosine-protein kinase Src (Homo sapiens) (P12931 2-536 limits assumed): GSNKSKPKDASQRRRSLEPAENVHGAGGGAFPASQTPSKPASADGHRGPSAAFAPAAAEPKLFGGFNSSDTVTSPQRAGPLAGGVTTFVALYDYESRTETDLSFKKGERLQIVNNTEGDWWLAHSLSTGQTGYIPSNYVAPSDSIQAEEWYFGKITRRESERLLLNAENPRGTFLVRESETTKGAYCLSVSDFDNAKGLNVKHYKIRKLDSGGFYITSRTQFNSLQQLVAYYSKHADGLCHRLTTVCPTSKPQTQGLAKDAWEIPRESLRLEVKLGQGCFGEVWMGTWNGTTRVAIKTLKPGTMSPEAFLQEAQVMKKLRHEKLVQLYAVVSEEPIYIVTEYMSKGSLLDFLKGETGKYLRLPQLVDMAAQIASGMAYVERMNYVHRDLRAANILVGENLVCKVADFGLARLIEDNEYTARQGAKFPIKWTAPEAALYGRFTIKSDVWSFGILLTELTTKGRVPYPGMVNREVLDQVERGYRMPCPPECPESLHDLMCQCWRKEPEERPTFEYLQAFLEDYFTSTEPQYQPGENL
The test system of experiment [6] is PBMC. The experiment in a line: cells. The note with it: Homo sapiens.
Description: Inhibition of LPS-stimulated TH+NF-alphs production by human peripheral blood mononuclear cells (PBMCs)
In experiment [7] the target is T1, Prostaglandin G/H synthase 1 (Homo sapiens, UniProt P23219). As to the kind of experiment: Inhibition of Prostaglandin G/H synthase 1 at 5 uM (Inactive).
T1 sequence (P23219 whole entry): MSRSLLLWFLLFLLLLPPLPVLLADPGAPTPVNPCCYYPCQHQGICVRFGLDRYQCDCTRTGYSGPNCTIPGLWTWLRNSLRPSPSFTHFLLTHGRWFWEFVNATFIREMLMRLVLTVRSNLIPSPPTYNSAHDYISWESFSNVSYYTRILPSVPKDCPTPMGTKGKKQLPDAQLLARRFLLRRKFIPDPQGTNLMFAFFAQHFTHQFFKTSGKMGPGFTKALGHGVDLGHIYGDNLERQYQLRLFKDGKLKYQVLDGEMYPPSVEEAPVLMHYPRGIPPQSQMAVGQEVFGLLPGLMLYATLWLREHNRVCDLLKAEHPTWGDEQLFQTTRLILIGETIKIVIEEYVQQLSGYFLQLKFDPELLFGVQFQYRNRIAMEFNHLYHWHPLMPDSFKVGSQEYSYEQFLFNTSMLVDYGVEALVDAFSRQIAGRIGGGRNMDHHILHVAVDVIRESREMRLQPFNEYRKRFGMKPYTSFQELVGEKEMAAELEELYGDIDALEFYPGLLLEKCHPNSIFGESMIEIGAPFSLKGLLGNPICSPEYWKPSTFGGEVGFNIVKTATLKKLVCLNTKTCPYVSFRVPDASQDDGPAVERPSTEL
Experiment [8] has as its system PBMC. As to the kind of experiment: cells. The note with it: Homo sapiens. It is filed as functional, cell-based.
The target in experiment [9] is T1, Prostaglandin G/H synthase 1. As to the kind of experiment: Inhibition of Prostaglandin G/H synthase 1 at 5 uM.
Experiment [10] can be described thus: animal or person. To be noted: Mus musculus, read-out: Inhibition.
Experiment [11] is described as follows: animal or person. To be noted: Mus musculus, read-out: Inhibition. This is another data set of the same source.

Sequence of Mitogen-activated protein kinase 1 (Homo sapiens) (P28482 whole entry): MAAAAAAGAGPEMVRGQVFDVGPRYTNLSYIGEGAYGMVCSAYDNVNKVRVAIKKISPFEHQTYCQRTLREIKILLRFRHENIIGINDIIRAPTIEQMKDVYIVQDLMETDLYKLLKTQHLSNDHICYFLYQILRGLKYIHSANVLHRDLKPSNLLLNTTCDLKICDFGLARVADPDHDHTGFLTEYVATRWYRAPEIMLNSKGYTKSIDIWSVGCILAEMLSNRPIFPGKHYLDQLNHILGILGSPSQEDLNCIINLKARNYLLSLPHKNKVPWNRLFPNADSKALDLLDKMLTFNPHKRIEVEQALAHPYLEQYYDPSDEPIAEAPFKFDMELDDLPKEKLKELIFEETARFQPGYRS

The inhibition is the change of the read-out against control, counted positive when it falls. A low value points to a response near the control. Turning to `C[S+]([O-])c1ccc(-c2nc(-c3ccc(F)cc3)c(-c3ccncc3)[nH]2)cc1` (stereo not drawn) [SB-203580], the inhibition is 22% in experiment [1], 0% in experiment [2] and 54% in experiment [5]. For the same compound, in [3], the inhibition in vivo at 10 mg/kg was 33%. Moreover, in experiment [4], the inhibition in vivo at 25 mg/kg came to 83%.
A word on the IC50: it is the concentration that inhibits the measured activity by half. A low value points to greater potency in that assay. Consider `COc1cccc(COc2cc(N)[nH]c3nc(-c4ccc(F)cc4)c(-c4ccncc4)c2-3)c1`, for which the inhibition was 0% in experiment [2] and 58% in experiment [5]. Also, 1.5 nM corresponded to half-maximal inhibition with PBMC [6] (IC50).
Regarding `Nc1ccc2c(-c3ccncc3)c(-c3ccc(F)cc3)[nH]c2n1`, the results for the inhibition in experiment [1], in experiment [2] and in experiment [5] were 0%, 16% and 63%, respectively. The IC50 entry was “Not Active” in experiment [7], 450 nM in the experiment with PBMC [8] and 37 nM in the experiment on PBMC [6]. In experiment [3], this compound yielded an inhibition in vivo at 10 mg/kg of 73%. In [4], the inhibition in vivo at 25 mg/kg was found to be 98%.
With `C[S+]([O-])c1ccc(-c2nc(-c3ccncc3)c(-c3ccc(F)cc3)[nH]2)cc1` (stereo not drawn) [SB-203580], in [9], the concentration for half-maximal inhibition (IC50) was greater than 5000 nM.
As for `CCCCOc1cc(N)[nH]c2nc(-c3ccc(F)cc3)c(-c3ccncc3)c1-2`, the IC50 result is “Not Active” in [7] and 4 nM in the experiment on PBMC [6]. For the same compound, the inhibition in experiment [2] was 0%; in [5], 18%. The compound also registered an inhibition in vivo at 10 mg/kg in experiment [3] of 27%. In experiment [4], this compound gave an inhibition in vivo at 25 mg/kg of 71%.
For `COc1cc(N)[nH]c2nc(-c3ccc(F)cc3)c(-c3ccncc3)c1-2`, the inhibition stood at 23% in experiment [1], 0% in [2] and 43% in experiment [5]. Besides, the IC50 result in experiment [7] is “Not Active”. Moreover, in the experiment “animal or person [10]”, the inhibition in vivo at 10 mg/kg was 85%. Further, the inhibition in vivo at 25 mg/kg in “animal or person [11]” was determined as 99%.
For `Nc1cc(OCCCc2ccccc2)c2c(-c3ccncc3)c(-c3ccc(F)cc3)[nH]c2n1`, the inhibition in experiment [2] was found to be 0%; in [5], 3%. Moreover, in the experiment on PBMC [6], it took 9 nM to reach half-maximal inhibition (IC50).
For the compound `Nc1cc(OCc2ccccc2)c2c(-c3ccncc3)c(-c3ccc(F)cc3)[nH]c2n1`, the half-maximal inhibitory concentration (IC50) result in experiment [7] is “Not Active”; in the experiment with PBMC [6], 0.91 nM. The values for the inhibition in [2] and in experiment [5] were 0% and 19%, respectively. The inhibition in vivo at 10 mg/kg in experiment [3] is 11%. This compound had an inhibition in vivo at 25 mg/kg in experiment [4] of 86%.
